Tests used:
[1] = system: pathogenic bacteria causing bacterial angular leaf spot in cucumbers; assay: In vitro bactericidal activity, bacterial angular leaf spot in cucumbers; assay type: cell-based, pseudomonas; details: read-out: inhibitory rate; for inhibition at 1 ppm: dosage 1 ppm; for inhibition at 5 ppm: dosage 5 ppm
[2] = system: stem rot in sweet potatoes; assay: whole plant or invertebrate; details: read-out: efficacy against stem rot in sweet potatoes
[3] = system: pathogenic bacteria causing bacterial wilt in tobacco; assay: whole plant or invertebrate; assay type: cell-based, ralstonia; details: read-out: inhibitory rate
[4] = system: indoor potted cucumber seedlings; assay: Effect of improving growth and development of crops; assay type: in vivo; design: Rate of growth rate increase (%): concentration or dose not given beside the values; details: versus blank control; for Rate of chlorophyll content increase (%) / Rate of leaf area increase (%): 14 days after application; for Rate of growth rate increase (%): plant height 14 days after application; for Rate of leaf area increase (%): second leaf
Protocol: Taking indoor potted cucumber seedlings as an example, the influence of the compound disclosed herein on growth rate of plant height, chlorophyll content, leaf area, etc. of crops was mainly evaluated.
The plant heights of plants before application and 14 days after the application were measured.
The growth rates were calculated according to formula (1)
The rates of the growth rate increase (%) were calculated according to formula (2)
The longitudinal and transverse diameters (i.e., leaf length and leaf width, respectively, wherein the leaf length is the distance from the base to the tip of a leaf, and leaf width is the measured value of the upper shoulder width of the leaf) of the second leaf of plants before application and 14 days after the application were measured.
The leaf areas were calculated according to formula (3)
The leaf area increases were calculated according to formula (4)
The rates of the leaf area increases were calculated according to formula (5)
The chlorophyll contents of leaves were measured by using a chlorophyll measuring instrument (model: SPAD-520 Plus).
The chlorophyll content increases were calculated according to formula (6)
The rates of the chlorophyll content increases were calculated according to formula (7)

[5] = system: pathogenic bacteria causing bacterial wilt in cassava; assay: organism not typed; assay type: cell-based; details: read-out: inhibitory rate
[6] = system: pathogenic bacteria causing stem rot in sweet potatoes; assay: In vitro bactericidal activity, stem rot in sweet potatoes; assay type: cell-based, dikia; details: read-out: inhibitory rate; for inhibition at 1 ppm: dosage 1 ppm; for inhibition at 5 ppm: dosage 5 ppm
[7] = system: soft rot in Chinese cabbages; assay: whole plant or invertebrate; details: 48 h, read-out: efficacy against soft rot in Chinese cabbages
[8] = system: pathogenic bacteria causing fire blight in pears; assay: In vitro bactericidal activity, fire blight in pears; assay type: cell-based, erwinia; details: Erwinia, read-out: inhibitory rate; for inhibition at 1 ppm: dosage 1 ppm; for inhibition at 5 ppm: dosage 5 ppm
black shank in potatoes = assay: Living crops in vivo protective activity, potatoes (root irrigation); details: Solanum tuberosum, read-out: efficacy against black shank in potatoes; for pest or weed control at 5 ppm: dosage 5 ppm; for pest or weed control at 10 ppm: dosage 10 ppm
Protocol: Root irrigation was carried out on the potatoes for tests according to the designed concentration of the agents. The dosage for each plant was 200 mL and was kept consistent (also for the control). The black shank bacteria were inoculated on the second day after the application. The results were investigated according to the disease condition.

[9] = system: pathogenic bacteria causing fruit blotch in watermelons; assay: In vitro bactericidal activity, fruit blotch in watermelons; assay type: cell-based, acidovorax; details: read-out: inhibitory rate; for inhibition at 1 ppm: dosage 1 ppm; for inhibition at 5 ppm: dosage 5 ppm
[10] = system: pathogenic bacteria causing black shank in potatoes; assay: In vitro bactericidal activity, black shank in potatoes; assay type: cell-based; details: read-out: inhibitory rate; for inhibition at 1 ppm: dosage 1 ppm; for inhibition at 5 ppm: dosage 5 ppm
[11] = system: pathogenic bacteria causing bacterial blight in rice; assay: whole plant or invertebrate; assay type: cell-based, xanthomonas; details: read-out: inhibitory rate
[12] = system: pathogenic bacteria causing black rot in Chinese cabbages; assay: In vitro bactericidal activity, black rot in Chinese cabbages; assay type: cell-based, xanthomonas; details: Xanthomonas, read-out: inhibitory rate; for inhibition at 1 ppm: dosage 1 ppm; for inhibition at 5 ppm: dosage 5 ppm
[13] = system: bacterial wilt in tobacco; assay: whole plant or invertebrate; details: Nicotiana tabacum, read-out: efficacy against bacterial wilt in tobacco
bacterial blight in rice = assay: whole plant or invertebrate; details: Oryza sativa, read-out: efficacy against bacterial blight in rice
[14] = system: fruit blotch in watermelons; assay: whole plant or invertebrate; details: read-out: efficacy against fruit blotch in watermelons
cucumber seedlings = assay: Safety for plant growth after application; assay type: in vivo; details: dosage 200 ppm
How it was run: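 Using pot-grown cucumber seedlings indoors, we recorded plant height growth rate together with chlorophyll content and leaf area following compound application.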

Row | SMILES | inhibition at 1 ppm [1] [%] | inhibition at 5 ppm [1] [%] | pest or weed control at 5 ppm [2] [%] | pest or weed control at 10 ppm [2] [%] | inhibition at 1 ppm [3] [%] | inhibition at 5 ppm [3] [%] | Rate of chlorophyll content increase (%) [4] [%] | Rate of growth rate increase (%) [4] [%] | Rate of leaf area increase (%) [4] [%] | inhibition at 1 ppm [5] [%] | inhibition at 5 ppm [5] [%] | inhibition at 1 ppm [6] [%] | inhibition at 5 ppm [6] [%] | pest or weed control at 5 ppm [7] [%] | pest or weed control at 10 ppm [7] [%] | inhibition at 1 ppm [8] [%] | inhibition at 5 ppm [8] [%] | pest or weed control at 5 ppm (black shank in potatoes) [%] | pest or weed control at 10 ppm (black shank in potatoes) [%] | inhibition at 1 ppm [9] [%] | further results
1 | O=C(OCCO)c1cn(C2CC2)c2cc(Cl)c(F)cc2c1=O [Compound 151, 2-hydroxyethyl-7-chloro-1-cyclopropyl-6-fluoro-4-oxo-1,4-dihydroquinoline-3-carboxylate] | ≥ 90 | ≥ 90 | ≥ 90 | ≥ 90 | ≥ 90 | ≥ 90 | 15 | 12 | 16 | ≥ 90 | ≥ 90 | ≥ 90 | ≥ 90 | ≥ 90 | ≥ 90 | ≥ 90 | ≥ 90 | ≥ 90 | ≥ 90 | ≥ 90 | inhibition at 5 ppm [9]: ≥ 90%; inhibition at 1 ppm [10]: ≥ 90%; inhibition at 5 ppm [10]: ≥ 90%; inhibition at 1 ppm [11]: ≥ 90%; inhibition at 5 ppm [11]: ≥ 90%; inhibition at 1 ppm [12]: ≥ 90%; inhibition at 5 ppm [12]: ≥ 90%; pest or weed control at 5 ppm [13]: ≥ 90%; pest or weed control at 10 ppm [13]: ≥ 90%; pest or weed control at 5 ppm (bacterial blight in rice): ≥ 90%; pest or weed control at 10 ppm (bacterial blight in rice): ≥ 90%; pest or weed control at 5 ppm [14]: ≥ 90%; pest or weed control at 10 ppm [14]: ≥ 90%; safety for plant growth (discoloration, necrosis, wilt, malformation) (cucumber seedlings): safe for plant growth
2 | CCOCCOC(=O)c1cn(C2CC2)c2cc(Cl)c(F)cc2c1=O [Compound 153] | ≥ 90 | ≥ 90 | ≥ 90 | ≥ 90 | ≥ 90 | ≥ 90 | 14 | 15 | 13 | ≥ 90 | ≥ 90 | ≥ 90 | ≥ 90 | ≥ 90 | ≥ 90 | ≥ 90 | ≥ 90 | ≥ 90 | ≥ 90 | ≥ 90 | inhibition at 5 ppm [9]: ≥ 90%; inhibition at 1 ppm [10]: ≥ 90%; inhibition at 5 ppm [10]: ≥ 90%; inhibition at 1 ppm [11]: ≥ 90%; inhibition at 5 ppm [11]: ≥ 90%; inhibition at 1 ppm [12]: ≥ 90%; inhibition at 5 ppm [12]: ≥ 90%; pest or weed control at 5 ppm [13]: ≥ 90%; pest or weed control at 10 ppm [13]: ≥ 90%; pest or weed control at 5 ppm (bacterial blight in rice): ≥ 90%; pest or weed control at 10 ppm (bacterial blight in rice): ≥ 90%; pest or weed control at 5 ppm [14]: ≥ 90%; pest or weed control at 10 ppm [14]: ≥ 90%; safety for plant growth (discoloration, necrosis, wilt, malformation) (cucumber seedlings): safe for plant growth
3 | O=C(OCCCO)c1cn(C2CC2)c2cc(Cl)c(F)cc2c1=O [Compound 164, 3-hydroxypropyl 7-chloro-1-cyclopropyl-6-fluoro-4-oxo-1,4-dihydroquinoline-3-carboxylate] | ≥ 90 | ≥ 90 | ≥ 90 | ≥ 90 | ≥ 90 | ≥ 90 | 19 | 12 | 16 | ≥ 90 | ≥ 90 | ≥ 90 | ≥ 90 | ≥ 90 | ≥ 90 | ≥ 90 | ≥ 90 | ≥ 90 | ≥ 90 | ≥ 90 | inhibition at 5 ppm [9]: ≥ 90%; inhibition at 1 ppm [10]: ≥ 90%; inhibition at 5 ppm [10]: ≥ 90%; inhibition at 1 ppm [11]: ≥ 90%; inhibition at 5 ppm [11]: ≥ 90%; inhibition at 1 ppm [12]: ≥ 90%; inhibition at 5 ppm [12]: ≥ 90%; pest or weed control at 5 ppm [13]: ≥ 90%; pest or weed control at 10 ppm [13]: ≥ 90%; pest or weed control at 5 ppm (bacterial blight in rice): ≥ 90%; pest or weed control at 10 ppm (bacterial blight in rice): ≥ 90%; pest or weed control at 5 ppm [14]: ≥ 90%; pest or weed control at 10 ppm [14]: ≥ 90%; safety for plant growth (discoloration, necrosis, wilt, malformation) (cucumber seedlings): safe for plant growth
4 | COCCCOC(=O)c1cn(C2CC2)c2cc(Cl)c(F)cc2c1=O [Compound 165, 3-methoxypropyl 7-chloro-1-cyclopropyl-6-fluoro-4-oxo-1,4-dihydroquinoline-3-carboxylate] | ≥ 90 | ≥ 90 | ≥ 90 | ≥ 90 | ≥ 90 | ≥ 90 | 16 | 12 | 17 | ≥ 90 | ≥ 90 | ≥ 90 | ≥ 90 | ≥ 90 | ≥ 90 | ≥ 90 | ≥ 90 | ≥ 90 | ≥ 90 | ≥ 90 | inhibition at 5 ppm [9]: ≥ 90%; inhibition at 1 ppm [10]: ≥ 90%; inhibition at 5 ppm [10]: ≥ 90%; inhibition at 1 ppm [11]: ≥ 90%; inhibition at 5 ppm [11]: ≥ 90%; inhibition at 1 ppm [12]: ≥ 90%; inhibition at 5 ppm [12]: ≥ 90%; pest or weed control at 5 ppm [13]: ≥ 90%; pest or weed control at 10 ppm [13]: ≥ 90%; pest or weed control at 5 ppm (bacterial blight in rice): ≥ 90%; pest or weed control at 10 ppm (bacterial blight in rice): ≥ 90%; pest or weed control at 5 ppm [14]: ≥ 90%; pest or weed control at 10 ppm [14]: ≥ 90%; safety for plant growth (discoloration, necrosis, wilt, malformation) (cucumber seedlings): safe for plant growth
5 | COCCCCOC(=O)c1cn(C2CC2)c2cc(Cl)c(F)cc2c1=O [Compound 178] | ≥ 90 | ≥ 90 | ≥ 90 | ≥ 90 | ≥ 90 | ≥ 90 | 15 | 9 | 9 | ≥ 90 | ≥ 90 | ≥ 90 | ≥ 90 | ≥ 90 | ≥ 90 | ≥ 90 | ≥ 90 | ≥ 80 | ≥ 90 | ≥ 90 | inhibition at 5 ppm [9]: ≥ 90%; inhibition at 1 ppm [10]: ≥ 80%; inhibition at 5 ppm [10]: ≥ 90%; inhibition at 1 ppm [11]: ≥ 90%; inhibition at 5 ppm [11]: ≥ 90%; inhibition at 1 ppm [12]: ≥ 90%; inhibition at 5 ppm [12]: ≥ 90%; pest or weed control at 5 ppm [13]: ≥ 90%; pest or weed control at 10 ppm [13]: ≥ 90%; pest or weed control at 5 ppm (bacterial blight in rice): ≥ 90%; pest or weed control at 10 ppm (bacterial blight in rice): ≥ 90%; pest or weed control at 5 ppm [14]: ≥ 90%; pest or weed control at 10 ppm [14]: ≥ 90%; safety for plant growth (discoloration, necrosis, wilt, malformation) (cucumber seedlings): safe for plant growth
